# Experimental data published in patent publication US9796755B2, “Methods of treating depression and other related diseases” (Northwestern University, priority 2009, dated 2017).
# Where a SMILES comes first, the peptide text is derived from it.
# What was measured:
# [1] = system: rat hippocampal organotypic cultures; experiment: LTP and LTD in rat hippocampal organotypic cultures; format: cell-based; settings: in vitro
# rats [2] = experiment: Porsolt test after microinjection into medial prefrontal cortex or motor cortex; format: in vivo, rat
# Method: To determine whether GLYX-13 acts in an area of the brain that is clinically relevant for depression, GLYX-13 was administered to either the medial prefrontal cortex (MPFC), which is associated with mood and depression, or to the motor cortex (FIG. 4). Mean time spent immobile in the Porsolt test was determined for groups of 10 three-month old male Fisher Brown Norway FI (FBNFI) rats pretreated with a single injection of GLYX-13 (1, 10 ug/side) or a single saline vehicle injection (0.5 ul/1 min) bilaterally into the medial prefrontal cortex or motor cortex (dorsal control) in animals with surgically implanted chronic indwelling cannulae aimed at the MPFC. […] Animals received a single 15 min training swim session one day before dosing.
# The Porsolt test adapted for use in rats was performed as above. Animals were placed in a 46 cm tall×20 cm in diameter clear plastic tube filled to 30 cm with tap water (23±1° C.) for 15 min on the first day (habituation) and […] on the subsequent test day.
# Bilateral 22-gauge guide cannulae (Plastic Products, USA) were stereotaxically implanted into the infralimbic/prelimbic cortex (+2.7 mm anterior,±1.2 mm lateral, 3.1 mm. ventral to bregma; cannulae angled 12° away from the midline) or dorsal control primary secondary motor cortex. (+2.7 mm anterior,±1.2 mm lateral, 1.0 mm ventral to bregma; cannulae angled 12° away from the midline). Animals were allowed 1 week to recover from surgery before the start of testing. After the completion of behavioral testing, histology was conducted for cannulae tip location. For medial prefrontal cannulae, all tips were located within the infralimbic or prelimbic cortex 2.2-3.2 mm anterior to bregma. For motor cortex cannulae, all tips were located, within the primary or secondary motor cortex 2.2-3.2 mm anterior to bregma.
# [3] = system: glycogen synthase kinase 3β (GSK-3β); experiment: Total and phosphoserine-9 GSK-3β by ELISA in medial prefrontal cortex; format: in vivo, rat; settings: 24 hrs after GLYX-13 3 mg/kg IV or ketamine 10 mg/kg IV
# From the text: Total and Phosphoserine-9 glycogen synthase kinase 3β (GSK-3β) were quantified by ELISA according to the manufacturer's instructions (catalog numbers ADI-900-144 and ADI-900-123A, Assay Designs, USA). Total and phosphoserine-845 GluR1 were quantified by Western blot.
# rats [4] = experiment: Drug discrimination in rats trained to discriminate ketamine from saline
# Method: Testing was conducted as described previously (Nicholson K L & Balster R L (2009) The discriminative stimulus effects of N-methyl-D-aspartate glycine-site ligands in NMDA antagonist-trained rats. Psychopharmacology (Berl) 203(2):441-451). Adult male Sprague Dawley rats were trained to discriminate ketamine (10 mg/kg IP) from saline. Animals were then tested following various doses of GLYX-13 administration (3-156 mg/kg SC) and the percent of ketamine lever responding and rates of responding were recorded.
# NMDA receptor = biological target: T1, NMDA receptor (Rattus norvegicus, UniProt P35439); experiment: Pharmacologically isolated NMDAR EPSCs in hippocampal slices (CA1 pyramidal neurons); format: cell-based; settings: NMDA receptor current, hippocampal slice assay; read-out: intrinsic activity relative to D-serine (full agonist)
# T1 construct: from tissue; host or cells: rat hippocampal slices, CA1 pyramidal neurons
# Method: Experiments were conducted on hippocampal slices from 14-18 day old Sprague-Dawley rats. Whole cell recordings were obtained from CA1 pyramidal neurons voltage clamped at −69 mV, in slices perfused with ACSF containing 0 mM [Mg2+] and 3 mM [Ca2+], plus 10 μM bicuculline and 20 μM CNQX to pharmacologically isolate NMDAR-dependent. EPSCs. Following bath applications of varying concentrations of GLYX-13 and D-serine, EPSCs were elicited by stimulating Schaffer collateral fibers with single electrical pulses (80 μs duration) once every 30 s.
# Functional affinity, Kp, of GLYX-13 for the NMDAR was estimated using the equiactive concentration null method of Stephenson (Stephenson R. P. (1956) A modification of receptor theory. Br J Pharmacol Chemother 11(4):379-393) as exemplified by Kenakin (Kenakin T. P. (1997) Pharmacologic Analysis of Drug-Receptor Interaction (New York.)) In this analysis concentration-response curves are generated to full agonist, and to the full agonist in the presence of a set concentration of the partial agonist of interest (FIG. 18, Panel B). Equiactive concentrations arc read off the […] of each of the concentration-respouse curves and plotted as the concentration of full agonist [D-serine] alone and in the presence of partial agonist [GLYX-13] that produce equal effect.
smiles,measurement,setting,value
"C[C@@H](O)[C@H](N)C(=O)N1CCC[C@H]1C(=O)N1CCC[C@H]1C(=O)N[C@H](C(N)=O)[C@@H](C)O [GLYX-13, L-threonyl-L-prolyl-L-prolyl-L-threonine amide] (H-TPPT-NH2)",long-term depression (LTD),[1],reducing
same,long-term potentiation (LTP),[1],markedly elevate
same,effect on floating time in the Porsolt test,"rats [2]; MPFC injection 1 μg/side, two weeks post dosing, independent group",Reduction in floating time was still apparent
same,effect on floating time in the Porsolt test,"rats [2]; MPFC injections, 1 and 10 μg/side, 20 min post dosing",reduced floating time
same,reduction in floating compared to saline control or GLYX-13 injected into motor cortex,"rats [2]; injected into MPFC, FBNF1 rats, 20 min post injection, Mean±SEM",50±5%
same,phosphoserine-9 GSK-3β/total GSK-3β ratio,[3],reduced
same,suppression of operant responding (rates of responding),"rats [4]; SC, 3-156 mg/kg",did not suppress operant responding at any dose
same,ketamine-like discriminative stimulus effects (percentage ketamine-lever responding),"rats [4]; SC, dose range 3-156 mg/kg",did not show any ketamine-like discriminative stimulus effects
same,therapeutic index,"rats [4]; drug discrimination highest dose vs Porsolt active dose 10 mg/kg SC, printed as 170:10",≥ 17
same,effect in the drug discrimination assay,"rats [4]; highest dose evaluated, 156 mg/kg SC",essentially without effect
same,Emax,NMDA receptor,23%
